Results reported in patent publication US7417036B2, “Crystal form of adefovir dipivoxil and its preparation” (Tianjin Kinsly Pharmaceutical Co. Ltd., priority 2002, dated 2008).
Values joined by “and” are separate entries in the source; they are usually repeats but may differ in a detail not shown here. Equal values may be shown once.

Assay: Kinetic studies of the plasma concentration in animals with different crystalline forms of AD (oral, monkeys; adefovir measured in serum by HPLC)
Type: in vivo, Macaques
Protocol: The experiment was carried out by orally administering to monkeys the drugs in order to investigate the in vivo absorption of two crystalline forms of AD: the novel crystalline AD of the present invention produced by Tianjin Kinsly pharmaceutical R & D Co. Ltd. and crystalline form I of AD prepared according to the method of GILEAD SCIENCES INC. The experiment provides useful clinical references for the application of novel crystalline AD.
Tablets of novel crystalline form of AD, white, each of which contains 10 mg of adefovir, Tianjin Kinsly pharmaceutical R&D Co. Ltd., batch number 020320.
Tablets of AD crystalline form I, white, each of which contains 10 mg of adefovir, Tianjin Kinsly pharmaceutical R&D Co. Ltd., batch number 020225.
Macaques, weighing from 5 kg to 8 kg (certificate No: 2001-03, approved by Beijing Forestry Administration in the document of [2001] 83) were provided by Xie'er Animal Health Caring Science and Technology Co. Ltd (Beijing, P. R. China).
As the pro-drug of adefovir, AD is the bis-pivaloyloxymethyl ester of adefovir, which increases the in vivo bioavailability of orally administered adefovir. AD can be rapidly metabolized into PMEA, rendering it undetectable in blood. Thus the concentration of its parent compound was measured.
Mobile phase: 0.2% phosphoric acid-methanol-B7 (97:3:0.5) degassed and filtrated through 0.45 μm milipore filter.
Stationary phase: C18-column (4.6×250 mm) packed with 5μ fillers, Tianjin Tianhe Chromatogram Inc, the column temperature from 18° C. to 22° C.
Detection: the UV detection wavelength λ=260 nm (0.01AUFS)
A given volume of serum was taken and an equal volume of 10% trichloroacetic acid was added. The mixture was shaken thoroughly and kept still for more than 30 min to precipitate the proteins, then centrifuged at 10000 rpm for 2 min. The precipitates were separated and 30 μL of the supernat was removed for injection.
The experiment was started one week after intestinal worms were dispelled from the animals. Eight animals were randomly assigned into two groups, each consisting of four animals. The animals were fasted for 12 h and were orally administered the novel crystalline form of AD for one group or crystalline form I of AD for another group at a dose of 20 mg/kg together with 200 ml of water. 2 hours after administration, the animals were fed in a fixed quantity. 2.0 ml samples of whole blood were collected from the elbow veins before administration and 10, 20, 30, 45 min and 1, 2, 4, 6, 8, 12, and 24 h after administration. The serum was separated and freeze-stored for measurement. A cross-experiment was done similarly 2 weeks later.
The pharmacokinetic parameters were calculated based on the plasma concentrations at different time points. The time to peak concentration (Tpeak) and the maximum concentration (Cmax) used the measured value. The terminal phase elimination rate constant (Ke) was obtained by fitting the linear section of the curve of logarithm of the plasma concentration of drug in terminal phase versus time and the terminal phase clearance half life time (T1/2) was calculated by dividing 0.693 by Ke. AUC0-t was calculated according to the trapezoid rule.
Apparent volume of distribution (Vd)=dosage/(AUCXKe);
Total Clearance (CL)=dosage/AUC.
Comparison of the data of the two crystalline form: Data of Cmax, Ke, T1/2 and AUC0-t were statistically processed by t test, while Tpeak was processed by non-parametric test. In addition, Comparison of bio-equivalence was carried out based on Cmax and AUC0-t by using two one-sided t test.
Eight macaques were assigned into two groups, group for the novel crystalline form and the group for crystalline form I. The animals were administered according to an open randomized crossover scheme. Afterward, adefovir concentrations in serum were measured at the predetermined time points. […]

[1] = adefovir, oral 20 mg/kg, macaques, average of 8 animals (ASD row)
[2] = adefovir, oral 20 mg/kg, macaques, individual animal No. 1-8, listed as Crystalline form I, 20 mg/kg

## CC(C)(C)C(=O)OCOP(=O)(COCCn1cnc2c(N)ncnc21)OCOC(=O)C(C)(C)C [crystalline form I, reference compound]
0.167 h after oral administration, 20 mg/kg, macaques, average of 8 animals (ASD row)
  Adefovir concentrations in serum (Plasma concentrations versus time), average: 77.0 ng/mL
0.167 h after oral administration, 20 mg/kg, macaques, individual animal No. 1-8, 20 mg/kg
  Adefovir concentrations in serum (Plasma concentrations versus time): 66.6 ng/mL and 90.1 ng/mL
0.333 h after oral administration, 20 mg/kg, macaques, average of 8 animals (ASD row)
  Adefovir concentrations in serum (Plasma concentrations versus time), average: 235.4 ng/mL
0.333 h after oral administration, 20 mg/kg, macaques, individual animal No. 1-8, 20 mg/kg
  Adefovir concentrations in serum (Plasma concentrations versus time): 148.0 ng/mL
0.5 h after oral administration, 20 mg/kg, macaques, average of 8 animals (ASD row)
  Adefovir concentrations in serum (Plasma concentrations versus time), average: 546.7 ng/mL
0.5 h after oral administration, 20 mg/kg, macaques, individual animal No. 1-8, 20 mg/kg
  Adefovir concentrations in serum (Plasma concentrations versus time): 397.9 ng/mL
0.75 h after oral administration, 20 mg/kg, macaques, average of 8 animals (ASD row)
  Adefovir concentrations in serum (Plasma concentrations versus time), average: 350.9 ng/mL
0.75 h after oral administration, 20 mg/kg, macaques, individual animal No. 1-8, 20 mg/kg
  Adefovir concentrations in serum (Plasma concentrations versus time): 305.2 ng/mL
1 h after oral administration, 20 mg/kg, macaques, average of 8 animals (ASD row)
  Adefovir concentrations in serum (Plasma concentrations versus time), average: 285.2 ng/mL
1 h after oral administration, 20 mg/kg, macaques, individual animal No. 1-8, 20 mg/kg
  Adefovir concentrations in serum (Plasma concentrations versus time): 196.6 ng/mL
2 h after oral administration, 20 mg/kg, macaques, average of 8 animals (ASD row)
  Adefovir concentrations in serum (Plasma concentrations versus time), average: 230.5 ng/mL
2 h after oral administration, 20 mg/kg, macaques, individual animal No. 1-8, 20 mg/kg
  Adefovir concentrations in serum (Plasma concentrations versus time): 161.3 ng/mL
4 h after oral administration, 20 mg/kg, macaques, average of 8 animals (ASD row)
  Adefovir concentrations in serum (Plasma concentrations versus time), average: 177.5 ng/mL
4 h after oral administration, 20 mg/kg, macaques, individual animal No. 1-8, 20 mg/kg
  Adefovir concentrations in serum (Plasma concentrations versus time): 89.3 ng/mL
6 h after oral administration, 20 mg/kg, macaques, average of 8 animals (ASD row)
  Adefovir concentrations in serum (Plasma concentrations versus time), average: 146.8 ng/mL
6 h after oral administration, 20 mg/kg, macaques, individual animal No. 1-8, 20 mg/kg
  Adefovir concentrations in serum (Plasma concentrations versus time): 102.0 ng/mL
8 h after oral administration, 20 mg/kg, macaques, average of 8 animals (ASD row)
  Adefovir concentrations in serum (Plasma concentrations versus time), average: 116.7 ng/mL
8 h after oral administration, 20 mg/kg, macaques, individual animal No. 1-8, 20 mg/kg
  Adefovir concentrations in serum (Plasma concentrations versus time): 82.9 ng/mL
12 h after oral administration, 20 mg/kg, macaques, average of 8 animals (ASD row)
  Adefovir concentrations in serum (Plasma concentrations versus time), average: 86.0 ng/mL
12 h after oral administration, 20 mg/kg, macaques, individual animal No. 1-8, 20 mg/kg
  Adefovir concentrations in serum (Plasma concentrations versus time): 70.1 ng/mL and 72.6 ng/mL
24 h after oral administration, 20 mg/kg, macaques, average of 8 animals (ASD row)
  Adefovir concentrations in serum (Plasma concentrations versus time), average: 44.3 ng/mL
24 h after oral administration, 20 mg/kg, macaques, individual animal No. 1-8, 20 mg/kg
  Adefovir concentrations in serum (Plasma concentrations versus time): 36.8 ng/mL and 56.6 ng/mL
Adefovir apparent volume of distribution, oral 20 mg/kg, macaques, individual animal No. 1-8, 20 mg/kg
  Vd: 125.6 L and 107.3 L and 85.8 L and 95.0 L and 145.1 L and 76.6 L and 158.8 L and 99.9 L
adefovir, oral 20 mg/kg
  average AUCO-T: 2723.82 ng·h/mL
  average Tpeak: 0.53 h
  average apparent volume of distribution (Vc): 17.50 L
  average elimination half-life time: 10.5 h
  average peak concentration: 551.21 ng/mL
adefovir, oral 20 mg/kg, macaques, average of 8 animals
  Cmax, average: 551.21 ng/mL
[1]
  CL, average: 7723.2 mL/h
  Ke, average: 0.072 L/h
  T1/2, average: 10.5 h
  Tpeak, average: 0.53 h
  Vd, average: 117.0 L
adefovir, oral 20 mg/kg, macaques, average of 8 animals, listed as Crystalline form I, 20 mg/kg
  AUC0-t, average: 2723.8 ng·h/mL
adefovir, oral 20 mg/kg, macaques, average of 8 animals, listed as Form I, 20 mg/kg
  AUC0-t, average: 2724 ng·h/mL
[2]
  AUC0-t: 2214.1 ng·h/mL and 2624.4 ng·h/mL and 2188.0 ng·h/mL and 3647.5 ng·h/mL and 3379.4 ng·h/mL and 3452.3 ng·h/mL and 2317.8 ng·h/mL and 1967.0 ng·h/mL
  Cmax: 402.2 ng/mL and 785.4 ng/mL and 366.2 ng/mL and 698.1 ng/mL and 915.4 ng/mL and 432.2 ng/mL and 412.3 ng/mL and 397.9 ng/mL
  T1/2: 9.6 h and 9.8 h and 6.5 h and 12.0 h and 17.0 h and 9.2 h and 12.8 h and 6.8 h
  Tpeak: 0.5 h (7×) and 0.75 h
adefovir, oral 20 mg/kg, macaques, individual animal No. 1-8, listed as Form I, 20 mg/kg
  Cmax: 689.1 ng/mL
